ChEMBL document CHEMBL1141174, “Quantitative structure-activity relationship analysis of inhibitors of the nicotine metabolizing CYP2A6 enzyme” (J Med Chem, 2005)

T1: Cytochrome P450 2A5 (Mus musculus, UniProt P20852)
T1 sequence (P20852 whole entry): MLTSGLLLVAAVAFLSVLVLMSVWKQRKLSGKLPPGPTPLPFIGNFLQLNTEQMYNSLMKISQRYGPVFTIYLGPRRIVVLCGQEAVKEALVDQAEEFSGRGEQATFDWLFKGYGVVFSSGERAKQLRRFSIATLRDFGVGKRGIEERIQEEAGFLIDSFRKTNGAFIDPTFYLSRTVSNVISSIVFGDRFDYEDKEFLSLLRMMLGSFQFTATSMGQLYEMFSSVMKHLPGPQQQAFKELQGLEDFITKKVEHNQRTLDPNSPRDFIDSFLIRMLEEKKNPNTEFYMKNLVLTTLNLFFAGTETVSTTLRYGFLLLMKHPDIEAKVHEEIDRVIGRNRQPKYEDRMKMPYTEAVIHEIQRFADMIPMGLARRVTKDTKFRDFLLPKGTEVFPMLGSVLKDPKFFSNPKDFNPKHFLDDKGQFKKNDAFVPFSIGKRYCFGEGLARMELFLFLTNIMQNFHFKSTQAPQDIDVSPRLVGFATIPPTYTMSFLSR

T2: Cytochrome P450 2A6 (Homo sapiens, UniProt P11509)
T2 sequence (P11509 whole entry): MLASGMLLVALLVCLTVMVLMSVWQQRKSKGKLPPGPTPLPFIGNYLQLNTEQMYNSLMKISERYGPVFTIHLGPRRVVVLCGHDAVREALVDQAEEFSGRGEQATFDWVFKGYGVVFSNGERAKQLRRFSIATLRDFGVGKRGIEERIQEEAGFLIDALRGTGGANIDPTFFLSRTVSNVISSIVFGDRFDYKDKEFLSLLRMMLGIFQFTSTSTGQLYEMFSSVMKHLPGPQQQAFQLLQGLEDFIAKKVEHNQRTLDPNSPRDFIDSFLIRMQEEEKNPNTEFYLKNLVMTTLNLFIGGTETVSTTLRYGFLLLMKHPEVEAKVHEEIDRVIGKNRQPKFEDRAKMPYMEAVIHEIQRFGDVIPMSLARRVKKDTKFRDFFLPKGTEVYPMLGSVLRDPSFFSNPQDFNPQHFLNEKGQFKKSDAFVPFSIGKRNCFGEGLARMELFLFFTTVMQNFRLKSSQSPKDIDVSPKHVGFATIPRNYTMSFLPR

T3: CYP2A6 (Homo sapiens, UniProt P11509)
T3 sequence (P11509 whole entry): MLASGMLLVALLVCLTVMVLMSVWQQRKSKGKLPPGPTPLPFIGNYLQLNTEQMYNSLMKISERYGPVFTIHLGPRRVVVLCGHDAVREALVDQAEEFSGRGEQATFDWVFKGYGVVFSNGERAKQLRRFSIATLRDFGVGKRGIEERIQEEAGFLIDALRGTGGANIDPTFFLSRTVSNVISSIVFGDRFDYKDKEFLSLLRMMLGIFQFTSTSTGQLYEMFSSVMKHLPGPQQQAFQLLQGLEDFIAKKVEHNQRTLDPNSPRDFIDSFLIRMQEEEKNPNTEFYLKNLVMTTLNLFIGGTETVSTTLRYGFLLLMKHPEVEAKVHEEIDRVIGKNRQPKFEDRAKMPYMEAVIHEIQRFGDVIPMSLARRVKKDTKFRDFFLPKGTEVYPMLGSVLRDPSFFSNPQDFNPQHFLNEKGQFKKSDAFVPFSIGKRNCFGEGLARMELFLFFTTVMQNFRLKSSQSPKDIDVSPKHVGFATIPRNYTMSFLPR

B1: Cytochrome P450 2A5 (Mus musculus) (protein)
chain: MLTSGLLLVAAVAFLSVLVLMSVWKQRKLSGKLPPGPTPLPFIGNFLQLNTEQMYNSLMKISQRYGPVFTIYLGPRRIVVLCGQEAVKEALVDQAEEFSGRGEQATFDWLFKGYGVVFSSGERAKQLRRFSIATLRDFGVGKRGIEERIQEEAGFLIDSFRKTNGAFIDPTFYLSRTVSNVISSIVFGDRFDYEDKEFLSLLRMMLGSFQFTATSMGQLYEMFSSVMKHLPGPQQQAFKELQGLEDFITKKVEHNQRTLDPNSPRDFIDSFLIRMLEEKKNPNTEFYMKNLVLTTLNLFFAGTETVSTTLRYGFLLLMKHPDIEAKVHEEIDRVIGRNRQPKYEDRMKMPYTEAVIHEIQRFADMIPMGLARRVTKDTKFRDFLLPKGTEVFPMLGSVLKDPKFFSNPKDFNPKHFLDDKGQFKKNDAFVPFSIGKRYCFGEGLARMELFLFLTNIMQNFHFKSTQAPQDIDVSPRLVGFATIPPTYTMSFLSR

Columns and labels:
CYP2A6 / CYP2A5 = assay: Ratio of IC50 for human CYP2A6 to that of mouse CYP2A5 was determined
Cytochrome P450 2A5 = target: T1, Cytochrome P450 2A5; assay: Inhibitory concentration against mouse cytochrome P450 2A5
Cytochrome P450 2A6 = target: T2, Cytochrome P450 2A6; assay: Inhibitory concentration against human cytochrome P450 2A6
CYP2A6 = target: T3, CYP2A6; assay: Michaelis-Menten constant of compound against human cytochrome P450 2A6 enzyme; format: ADME
[1] = substrate: O=c1ccc2ccccc2o1; assay: Michaelis-Menten constant of compound against mouse cytochrome P450 2A5 enzyme; format: ADME

Molecule | selectivity ratio (CYP2A6 / CYP2A5) | IC50 (Cytochrome P450 2A5) | IC50 (Cytochrome P450 2A6) | Km (CYP2A6) | Km [1]
CC(=O)c1ccc2ccc(C)cc2c1 | 1.6 | 4.1 µM | 6.7 µM |  | 
Cc1cccc2c(C)cccc12 | 0.91 | 34 µM | 31 µM |  | 
Cc1ccc2ccccc2n1 [QUINALDINE] | 2.4 | 80 µM | 190 µM |  | 
Clc1cccc2ccccc12 | 1.3 | 14 µM | 18 µM |  | 
O=Cc1ccccc1 [BENZALDEHYDE] |  | 3.28 µM | 3.92 µM |  | 
Clc1ccc2ccccc2c1 | 0.45 | 12 µM | 5.4 µM |  | 
Oc1ccc2ccccc2c1 [BETANAPHTHOL] | 1.8 | 78 µM | 140 µM |  | 
Clc1ccc(Cl)cc1 [1,4-DICHLOROBENZENE] | 30.4 | 1 µM | 17 µM |  | 
Clc1ccc2ccccc2c1Cl |  | 5.5 µM | 15 µM |  | 
Cc1ccc2ccccc2c1 | 0.34 | 7 µM | 2.4 µM |  | 
Cc1cc(C)c2ccccc2n1 | 7.7 | 110 µM | 830 µM |  | 
Cc1nccc2ccccc12 | 0.36 | 170 µM | 60 µM |  | 
Clc1cc2ccccc2cc1Cl |  | 60 µM | > 60 µM |  | 
Cc1ccc(C=O)cc1 |  | 20.9 µM |  |  | 
CN1CCC[C@@H]1c1cccnc1 [R-NICOTINE] | 3.8 | 160 µM | 580 µM |  | 
Cc1ccc2c(C)cccc2c1 | 4 | 32 µM | 130 µM |  | 
Clc1ccccc1-c1ccccc1 | 2.8 | 13 µM | 36 µM |  | 
CCc1ccc2ccccc2c1 | 2.4 | 4.8 µM | 12 µM |  | 
Fc1ccc2ccccc2c1 | 0.09 | 7.3 µM | 0.67 µM |  | 
Clc1cccc2c(Cl)cccc12 | 1.04 | 2.4 µM | 2.5 µM |  | 
CC(N)Cc1ccccc1 (stereo not drawn) [AMPHETAMINE] |  | 2.85 µM | 3.5 µM |  | 
Cc1cnc2ccccc2c1 | 1.9 | 100 µM | 200 µM |  | 
c1ccc2c(c1)ccc1ccccc12 [PHENANTHRENE] | 4 | 26 µM | 97 µM |  | 

Molecule | selectivity ratio (CYP2A6 / CYP2A5) | IC50 (Cytochrome P450 2A5) | IC50 (Cytochrome P450 2A6) | Km (CYP2A6) | Km [1]
Cc1ccc2ccc(C)nc2c1 | 2.2 | 180 µM | 400 µM |  | 
Cc1ccc2ccc(C)cc2c1 |  | 1.4 µM | 1.7 µM |  | 
NCCc1ccccc1 [PHENETHYLAMINE] |  | 1000 µM | 38.9 µM |  | 
Cc1ccc2cc(C)ccc2c1 | 5.9 | 1.7 µM | 10 µM |  | 
Oc1cccc2ccccc12 [1-NAPHTHOL] | 0.96 | 140 µM | 130 µM |  | 
O=C1CCc2ccccc2C1 | 2.2 | 9.7 µM | 21 µM |  | 
COc1ccc(C=O)cc1 [ANISALDEHYDE] |  | 5.9 µM | 7.1 µM |  | 
Clc1ccc2ccc(Cl)cc2c1 |  | 4.4 µM | > 100 µM |  | 
Cc1cc2ccccc2cn1 | 5.1 | 4.8 µM | 25 µM |  | 
Clc1ccc(-c2ccccc2)cc1 | 8.2 | 18 µM | 150 µM |  | 
Brc1ccc2ccccc2c1 | 0.22 | 2.5 µM | 0.55 µM |  | 
Cc1ccc2cccc(C)c2c1 | 1.2 | 14 µM | 31 µM |  | 
CN1C(=O)CCC1c1cccnc1 (single isomer, unassigned) [COTININE] | 42.8 | 1500 µM |  |  | 
Cc1ccc(CCN)cc1 |  | 4 µM | 5.3 µM |  | 
O=c1ccc2ccccc2o1 [COUMARIN] |  |  |  | 0.74 µM | 
Clc1cc2cc(Cl)c(Cl)c(Cl)c2cc1Cl |  | 300 µM | > 600 µM |  | 
Cc1cccc2ccccc12 | 1.4 | 24 µM | 34 µM |  | 
COc1cc2c(cc1OC)CC(=O)CC2 | 9.2 | 210 µM | 2000 µM |  | 
c1ccc2ccccc2c1 [NAPHTHALENE] | 0.34 | 74 µM | 25 µM |  | 
O=C1CCCc2ccccc21 | 3.6 | 14 µM | 52 µM |  | 
Brc1ccc(Br)cc1 | 48.5 | 2.2 µM | 59 µM |  | 
B1 |  |  |  |  | 0.64 µM
